ChEMBL document CHEMBL3132794, “Imidazolium salts as antifungal agents: activity against emerging yeast pathogens, without human leukocyte toxicity” (Medchemcomm, 2013)
In brackets after ≈: the same amount, converted by molar mass.

Key:
[1] = Genotoxicity in human Leukocyte cells assessed as induction of DNA single strand breaks by single gel electrophoresis based alkaline comet assay; assay type: toxicity, cell-based
Nakaseomyces glabratus [2] = test: Antifungal activity against Candida glabrata clinical isolates by broth microdilution method; assay type: functional
[3] = Toxicity against human Leukocyte cells assessed as reduction in cell viability by trypan blue exclusion assay; assay type: cell-based
Candida parapsilosis [4] = test: Antifungal activity against Candida parapsilosis clinical isolates by broth microdilution method; assay type: functional; conditions: Lodderomyces parapsilosis
Trichosporon asahii [5] = test: Antifungal activity against Trichosporon asahii clinical isolates by broth microdilution method; assay type: functional
Candida tropicalis [6] = test: Antifungal activity against Candida tropicalis clinical isolates by broth microdilution method; assay type: functional
[7] = Toxicity against human Leukocyte cells assessed induction of structural damage by microscopy; assay type: cell-based
Candida tropicalis [8] = test: Inhibition of ergosterol biosynthesis in Candida tropicalis clinical isolates assessed as reduction in mean cellular ergosterol content by spectrophotometry; assay type: functional
Trichosporon asahii [9] = test: Inhibition of ergosterol biosynthesis in Trichosporon asahii clinical isolates assessed as reduction in mean cellular ergosterol content by spectrophotometry; assay type: functional
Candida parapsilosis [10] = test: Inhibition of ergosterol biosynthesis in Candida parapsilosis clinical isolates assessed as reduction in mean cellular ergosterol content by spectrophotometry; assay type: functional
Nakaseomyces glabratus [11] = test: Inhibition of ergosterol biosynthesis in Candida glabrata clinical isolates assessed as reduction in mean cellular ergosterol content by spectrophotometry; assay type: functional

CCCCCCCCCCn1cc[n+](C)c1.[Cl-]
Activity [1]: Non-toxic | MIC (Nakaseomyces glabratus [2]): 7.8 µg/mL | MIC50 (Nakaseomyces glabratus [2]): 15.6 µg/mL | Activity [3]: Non-toxic | MIC (Candida parapsilosis [4]): 1.9 µg/mL | MIC50 (Candida parapsilosis [4]): 7.8 µg/mL | MIC (Trichosporon asahii [5]): 7.8 µg/mL | MIC50 (Trichosporon asahii [5]): 31.2 µg/mL | MIC (Candida tropicalis [6]): 0.9 µg/mL | MIC50 (Candida tropicalis [6]): 1.9 µg/mL | Activity [7]: Non-toxic

CCCCCCCCCCCCCCCCn1cc[n+](C)c1.F[P-](F)(F)(F)(F)F
Activity [1]: Non-toxic | MIC (Nakaseomyces glabratus [2]): 1.9 µg/mL | MIC50 (Nakaseomyces glabratus [2]): 3.9 µg/mL | Activity [3]: Non-toxic | MIC (Candida parapsilosis [4]): 0.9 µg/mL | MIC50 (Candida parapsilosis [4]): 7.8 µg/mL | MIC (Trichosporon asahii [5]): 15.6 µg/mL | MIC50 (Trichosporon asahii [5]): 15.6 µg/mL | MIC (Candida tropicalis [6]): 0.9 µg/mL | MIC50 (Candida tropicalis [6]): 1.9 µg/mL | Activity [7]: Non-toxic

CCCCCCCCCCn1cc[n+](C)c1.CS(=O)(=O)[O-]
Activity [1]: Non-toxic | MIC (Nakaseomyces glabratus [2]): 15.6 µg/mL | MIC50 (Nakaseomyces glabratus [2]): 31.2 µg/mL | Activity [3]: Non-toxic | MIC (Candida parapsilosis [4]): 1.9 µg/mL | MIC50 (Candida parapsilosis [4]): 7.8 µg/mL | MIC (Trichosporon asahii [5]): 31.2 µg/mL | MIC50 (Trichosporon asahii [5]): 62.5 µg/mL | MIC (Candida tropicalis [6]): 1.9 µg/mL | MIC50 (Candida tropicalis [6]): 1.9 µg/mL | Activity [7]: Non-toxic

CCCCCCCCCCCCCCCCn1cc[n+](C)c1.F[B-](F)(F)F
Activity [1]: Non-toxic | MIC (Nakaseomyces glabratus [2]): 0.9 µg/mL | MIC50 (Nakaseomyces glabratus [2]): 0.9 µg/mL | inhibition (INH) (Candida tropicalis [8]): 33% | inhibition (INH) (Trichosporon asahii [9]): 33% | Activity [3]: Non-toxic | MIC (Candida parapsilosis [4]): 0.4 µg/mL | MIC50 (Candida parapsilosis [4]): 3.9 µg/mL | MIC (Trichosporon asahii [5]): 1.95 µg/mL | MIC50 (Trichosporon asahii [5]): 3.9 µg/mL | MIC (Candida tropicalis [6]): 0.9 µg/mL | MIC50 (Candida tropicalis [6]): 0.9 µg/mL | inhibition (INH) (Candida parapsilosis [10]): 33% | inhibition (INH) (Nakaseomyces glabratus [11]): 33% | Activity [7]: Non-toxic

CCCCCCCCCCCCCCn1cc[n+](C)c1.O=S(=O)([N-]S(=O)(=O)C(F)(F)F)C(F)(F)F
Activity [1]: Non-toxic | MIC (Nakaseomyces glabratus [2]): 3.9 µg/mL | MIC50 (Nakaseomyces glabratus [2]): 15.6 µg/mL | Activity [3]: Non-toxic | MIC (Candida parapsilosis [4]): 0.9 µg/mL | MIC50 (Candida parapsilosis [4]): 0.9 µg/mL | MIC (Trichosporon asahii [5]): 31.2 µg/mL | MIC50 (Trichosporon asahii [5]): 62.5 µg/mL | MIC (Candida tropicalis [6]): 0.9 µg/mL | MIC50 (Candida tropicalis [6]): 0.9 µg/mL | Activity [7]: Non-toxic

CCCCCCCCCCCCCCCCn1cc[n+](C)c1.[Cl-]
Activity [1]: Non-toxic | MIC (Nakaseomyces glabratus [2]): 0.9 µg/mL | MIC50 (Nakaseomyces glabratus [2]): 0.9 µg/mL | Activity [3]: Non-toxic | MIC (Candida parapsilosis [4]): 0.9 µg/mL | MIC50 (Candida parapsilosis [4]): 0.9 µg/mL | MIC (Trichosporon asahii [5]): 0.9 µg/mL | MIC50 (Trichosporon asahii [5]): 0.9 µg/mL | MIC (Candida tropicalis [6]): 0.9 µg/mL | MIC50 (Candida tropicalis [6]): 0.9 µg/mL | Activity [7]: Non-toxic

OC(Cn1cncn1)(Cn1cncn1)c1ccc(F)cc1F [FLUCONAZOLE]
MIC (Nakaseomyces glabratus [2]): 4 µg/mL (≈ 13.1 µM) | MIC50 (Nakaseomyces glabratus [2]): 8 µg/mL (≈ 26.1 µM) | MIC (Candida parapsilosis [4]): 1 µg/mL (≈ 3.27 µM) | MIC50 (Candida parapsilosis [4]): 1 µg/mL (≈ 3.27 µM) | MIC (Trichosporon asahii [5]): 4 µg/mL (≈ 13.1 µM) | MIC50 (Trichosporon asahii [5]): 8 µg/mL (≈ 26.1 µM) | MIC (Candida tropicalis [6]): 2 µg/mL (≈ 6.53 µM) | MIC50 (Candida tropicalis [6]): 8 µg/mL (≈ 26.1 µM)

CC(=O)N1CCN(c2ccc(OCC3COC(Cn4ccnc4)(c4ccc(Cl)cc4Cl)O3)cc2)CC1 (stereo unspecified) [KETOCONAZOLE]
MIC (Nakaseomyces glabratus [2]): 0.5 µg/mL (≈ 0.941 µM) | MIC50 (Nakaseomyces glabratus [2]): 4 µg/mL (≈ 7.53 µM) | MIC (Candida parapsilosis [4]): 0.125 µg/mL (≈ 0.235 µM) | MIC50 (Candida parapsilosis [4]): 1 µg/mL (≈ 1.88 µM) | MIC (Trichosporon asahii [5]): 0.25 µg/mL (≈ 0.47 µM) | MIC50 (Trichosporon asahii [5]): 4 µg/mL (≈ 7.53 µM) | MIC (Candida tropicalis [6]): 0.25 µg/mL (≈ 0.47 µM) | MIC50 (Candida tropicalis [6]): 4 µg/mL (≈ 7.53 µM)
